Laboratory results published in paper PMC9976899, “Identification of a novel 5-aminomethyl-2-thiouridine methyltransferase in tRNA modification” (Nucleic Acids Research, 2023).

Assays:
osMnmM (osYtqB) = biological target: T1, osMnmM (osYtqB) (Oryza sativa, UniProt Q0DGU2); conditions: 0.1 mM SAM, 20 uM enzyme, bulk tRNA from B. subtilis delta-ytqB (nm5s2U), pH 7.5, 37 C
T1 construct: gene Os05g0511700

atMnmM (atYtqB) = biological target: T2, atMnmM (atYtqB) (Arabidopsis thaliana, UniProt Q8GUP2); assay: in vitro tRNA methylation, nucleoside HPLC / LC-MS; type: biochemical; conditions: 0.1 mM SAM, 20 uM enzyme, bulk tRNA from B. subtilis delta-ytqB (nm5s2U), pH 7.5, 37 C
T2 construct: gene At1g16445; residues 53-274, chloroplast signal peptide removed, codon-optimized, His-tagged, expressed in E. coli BL21(DE3)
T2 sequence (Q8GUP2 53-274): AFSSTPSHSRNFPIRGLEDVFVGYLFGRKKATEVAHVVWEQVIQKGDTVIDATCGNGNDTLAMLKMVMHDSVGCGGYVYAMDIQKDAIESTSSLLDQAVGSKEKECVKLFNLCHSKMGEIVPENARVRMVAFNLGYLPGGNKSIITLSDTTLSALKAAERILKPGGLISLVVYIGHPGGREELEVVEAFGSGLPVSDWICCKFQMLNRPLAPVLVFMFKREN

T1 sequence (Q0DGU2 48-260): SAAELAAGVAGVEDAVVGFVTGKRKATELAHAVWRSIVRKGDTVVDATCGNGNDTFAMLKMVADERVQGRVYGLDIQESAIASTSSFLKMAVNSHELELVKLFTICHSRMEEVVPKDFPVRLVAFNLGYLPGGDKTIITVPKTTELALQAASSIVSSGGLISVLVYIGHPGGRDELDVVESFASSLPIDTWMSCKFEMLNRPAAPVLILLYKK

For `C[S+](CC[C@H](N)C(=O)O)C[C@H]1O[C@@H](n2cnc3c(N)ncnc32)[C@H](O)[C@@H]1O` (some centres unmarked) [SAM], which “in vitro tRNA methylation, nucleoside HPLC / LC-MS” value (osMnmM (osYtqB)) is on record?
The value was “saMnmM, atMnmM, and osMnmM were capable of methylating the hypomodified tRNA substrates”.

And the “in vitro tRNA methylation, nucleoside HPLC / LC-MS” value (atMnmM (atYtqB))?
The value was “saMnmM, atMnmM, and osMnmM were capable of methylating the hypomodified tRNA substrates”.
